Reference: patent US20100130613A1, “ADMINISTRATION OF ADAPALENE FOR MODULATING THE EXPRESSION OF CD1d OR IL-10” (GALDERMA RESEARCH & DEVELOPMENT, priority 2007, published 2010)

What was measured:
CD1d [1] = assay: CD1d expression in healthy human skin explants, immunohistochemistry; type: cell-based; details: 24 hours, versus control medium
Description: (§1) Healthy human skin: fragments of healthy skin originating from 8 healthy donors were obtained from a mammary plasty (plastic surgery) or a foreskin (infant surgery).
(§2) Fragments (4 mm in diameter) originating from biopsies of inflammatory skin, considered to be an inflammatory model, and of healthy skin, were incubated at 37° C. in a humid atmosphere and in the presence of 5% CO2 for 24 hours in KGM culture medium without hydrocortisone (PromoCell GmbH, Heidelberg, Germany). The culture medium was supplemented with two different concentrations of adapalene (Galderma, Sophia Antipolis, France): 10^−7 M and 10^−6 M. The culture medium alone served as control medium.
(§3) After incubation, the explants were removed from the culture medium and were then frozen in liquid nitrogen for the immunohistochemical study. The culture supernatants were stored at −80° C. for subsequent measurement of protein secretion, by an ELISA assay technique. […]
(§4) The labeling intensity was quantified according to a semi-quantitative scale: none (0), weak (1), medium (2) and strong (3). For each slide, the labeling intensity was determined using a mean of three fields. […] The reading was performed by two independent investigators.
(§5) All the results are expressed as mean +/−SEM. The statistical significance of differences from the values (by comparison to the control medium) was determined by means of the paired Wilcoxon test. […]

CD1d [2] = assay: CD1d expression in acneic skin explants, immunohistochemistry; type: cell-based, human; details: 24 hours, control medium 0.9 (+/−0.2), p=0.034
Source text: (§6) Inflammatory lesions of acne: a skin biopsy (1×1.5 cm) was obtained under local anaesthesia from a superficial inflammatory lesion (papula) on the back in 8 patients suffering from moderate acne and undergoing no topical treatment (for the last two weeks) or general treatment (for the last month, or three months for isotretinoin). The fragments taken were immediately placed in culture.
as §2, with “medium. […]” for “medium.”
as §4, §5

IL-10 [3] = assay: IL-10 expression in healthy human skin explants, immunohistochemistry; type: cell-based; details: 24 hours
Description: as §1, §2, §3, §4, §5

IL-10 [4] = assay: IL-10 expression in acneic skin explants, immunohistochemistry; type: cell-based, human; details: 24 hours, control medium 1.9 (+/−0.4)
Source text: as §6
as §2, with “medium. […]” for “medium.”
as §4, §5

IL-10 [5] = assay: IL-10 secretion in culture supernatants of healthy human skin explants, ELISA; type: cell-based; details: 24 hours, control medium 17.8 pg/ml
Description: as §1, §2
After incubation, the explants were removed from the culture medium and were then frozen in liquid nitrogen for the immunohistochemical study. […]
(§7) The concentrations of IL-10 were measured in the culture supernatants using a solid-phase ELISA (Enzyme Linked ImmunoSorbent Assay) sandwich kit, obtained from BioSource (International Inc, Ca, USA).
(§8) The slides were read at 450 nm using an Emax reader (Molecular Devices, CA, USA). […]
as §5

IL-10 [6] = assay: IL-10 secretion in culture supernatants of acneic skin explants, ELISA; type: cell-based, human; details: 24 hours, control medium 5.7 pg/ml (+/−7.1)
Source text: as §6
as §2, with “medium. […]” for “medium.”
as §7, §8, §5

RARγ = target: T1, RARγ (Homo sapiens, UniProt P13631); details: background statement; cited from earlier work
T1 sequence (P13631 1-454): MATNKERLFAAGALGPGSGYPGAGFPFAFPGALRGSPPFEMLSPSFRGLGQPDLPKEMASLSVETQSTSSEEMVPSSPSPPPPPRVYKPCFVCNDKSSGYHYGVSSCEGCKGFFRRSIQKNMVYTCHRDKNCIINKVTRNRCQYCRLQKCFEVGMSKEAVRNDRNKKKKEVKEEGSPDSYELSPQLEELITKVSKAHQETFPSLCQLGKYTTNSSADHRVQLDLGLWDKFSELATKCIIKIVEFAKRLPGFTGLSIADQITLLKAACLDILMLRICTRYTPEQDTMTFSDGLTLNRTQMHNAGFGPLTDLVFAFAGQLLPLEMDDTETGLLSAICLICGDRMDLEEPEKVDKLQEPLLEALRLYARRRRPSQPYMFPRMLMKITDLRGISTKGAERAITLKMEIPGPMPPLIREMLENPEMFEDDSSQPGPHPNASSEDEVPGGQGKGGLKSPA

RARβ = target: T2, RARβ (Homo sapiens, UniProt P10826); details: background statement; cited from earlier work
T2 sequence (P10826 1-455): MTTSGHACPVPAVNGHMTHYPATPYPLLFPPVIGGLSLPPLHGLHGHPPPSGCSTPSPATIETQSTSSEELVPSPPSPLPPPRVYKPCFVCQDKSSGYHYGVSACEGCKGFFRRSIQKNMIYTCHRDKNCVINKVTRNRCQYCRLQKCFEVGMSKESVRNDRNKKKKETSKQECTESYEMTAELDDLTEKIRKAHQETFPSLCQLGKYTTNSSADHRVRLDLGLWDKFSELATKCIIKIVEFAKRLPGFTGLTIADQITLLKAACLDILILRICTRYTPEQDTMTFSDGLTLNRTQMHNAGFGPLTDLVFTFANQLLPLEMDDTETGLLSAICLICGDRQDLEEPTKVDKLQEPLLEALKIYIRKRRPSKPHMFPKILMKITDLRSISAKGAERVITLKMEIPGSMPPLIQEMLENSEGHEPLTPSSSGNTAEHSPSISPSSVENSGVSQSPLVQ

[7] = test system: cellular retinoic acid binding proteins; details: background statement; cited from earlier work
lipoxygenase pathway = details: background statement; cited from earlier work
[8] = test system: polymorphonuclear neutrophils; details: background statement; cited from earlier work
free radicals = details: background statement; cited from earlier work
leukotrienes = details: background statement; cited from earlier work
[9] = test system: superficial inflammatory lesions; details: clinically; Millikan, Int. J. Dermatol. 2000; cited from earlier work

COc1ccc(-c2ccc3cc(C(=O)O)ccc3c2)cc1C12CC3CC(CC(C3)C1)C2 [adapalene, 6-[3-(1-adamantyl)-4-methoxyphenyl]-2-naphthoic acid]
expression of CD1d in the epidermis (labeling intensity) (CD1d [1]; 10^−6 M adapalene, p=0.035): significantly decreases
expression of CD1d in the epidermis (labeling intensity) (CD1d [1]; 10^−7 M adapalene, p=0.023): significantly decreases
expression of CD1d (labeling intensity, scale 0-3, mean +/−SEM) (CD1d [2]; 10^−6 M adapalene): 1.5 (+/−0.5)
expression of CD1d (labeling intensity, scale 0-3, mean +/−SEM) (CD1d [2]; 10^−7 M adapalene): 1.5 (+/−0.5)
inhibitory effect on the expression of IL-10 (IL-10 [3]; 10^−6 M adapalene, versus control medium, p=0.016): significant
expression of IL-10 in the epidermis (labeling intensity) (IL-10 [3]; 10^−7 M and 10^−6 M adapalene, dose-dependent): significantly decreases
intensity of IL-10 expression (scale 0-3, mean +/−SEM) (IL-10 [4]; 10^−6 M adapalene, p=0.0199): 0.6 (+/−0.2)
intensity of IL-10 expression (scale 0-3, mean +/−SEM) (IL-10 [4]; 10^−7 M adapalene, p=0.024): 0.9 (+/−0.2)
secretion of IL-10 in supernatants (IL-10 [5]; 10^−6 M adapalene): No modulation
secretion of IL-10 in supernatants (IL-10 [5]; 10^−7 M adapalene): increases the secretion of IL-10
IL-10 level in supernatants (IL-10 [6]; 10^−6 M adapalene): 4.0 pg/mL
IL-10 level in supernatants (IL-10 [6]; 10^−7 M adapalene): 6.1 pg/mL
binding to RARγ (RARγ): binds selectively
binding to RARβ (RARβ): binds selectively
binding to cellular retinoic acid binding proteins [7]: does not, on the other hand, bind
oxidative metabolism of arachidonic acid via the lipoxygenase pathway (lipoxygenase pathway): inhibits
chemotaxis of polymorphonuclear neutrophils [8]: inhibits
production of free radicals (free radicals): inhibits
production of leukotrienes via the lipoxygenase pathway (leukotrienes): inhibits
clinical activity on superficial inflammatory lesions [9]: exhibits an activity on superficial inflammatory lesions
